7 compounds from ChEMBL document CHEMBL1201862, “PubChem BioAssay data set” (2004) can be followed below.

Each structure is given as a SMILES string.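 Grown in 96-well plates, cells were treated for 48 hours with each compound at five concentrations. Insufficient inhibition: endpoint recorded as highest concentration tested. GI50: concentration for 50% inhibition of growth.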 The source made the active and inactive calls. Rule as the data show it: active = GI50 up to about 1.1 µM and inactive = higher. Where only a bound is given, the exact number is not on record here.

Some test systems named below: OVCAR-8; SF-539; UACC-62; SK-MEL-2; OVCAR-3; A549; SR; NCI-H226; SN12C; HOP-62; HCT-15; OVCAR-4; PC-3; UO-31; KM12; NCI/ADR-RES; U-251; M14; UACC-257; RPMI-8226.
Holding throughout (test): NCI-60 cell line screen, 48 h

Consider `O=c1cc(NNc2cccc3ccccc23)[nH]c(=O)[nH]1`, for which the GI50 was 18 µM (inactive) in the assay on OVCAR-8; 15.6 µM (inactive) in the assay on SF-539; 17.5 µM (inactive) in the assay on UACC-62; 15 µM (inactive) in the assay with SK-MEL-2; 14 µM (inactive) with OVCAR-3; 17.9 µM (inactive) in the assay on A549. Also, the GI50 in the assay on SR was 2.61 µM (inactive); with NCI-H226, 13 µM (inactive); with SN12C, 16.2 µM (inactive); in the assay with HOP-62, 17 µM (inactive); in the assay with HCT-15, 12.4 µM; with OVCAR-4, 17.2 µM (inactive). For the same compound, the GI50 was 13.8 µM (inactive) in the assay with PC-3; 16.3 µM (inactive) in the assay on UO-31; 16.4 µM (inactive) in the assay on KM12; 19.5 µM (inactive) in the assay with NCI/ADR-RES; 14.6 µM (inactive) with U-251; 15.9 µM (inactive) in the assay with M14. The results for the GI50 in the assay on UACC-257 and in the assay on RPMI-8226 were 15.7 µM (inactive) and 5.53 µM (inactive), respectively.

As to `Cc1cccc2c1CC(C1OC(=O)c3ccccc31)C2=O` (stereo not given), the GI50 in the assay with OVCAR-8, in the assay on SF-539, in the assay with UACC-62, in the assay on SK-MEL-2, in the assay with OVCAR-3 and in the assay on A549 was > 100 µM (inactive) each time. Also, the GI50 in the assay on SR was > 100 µM (inactive); in the assay with NCI-H226, > 100 µM (inactive); with SN12C, > 100 µM (inactive); with HOP-62, > 100 µM (inactive); in the assay on HCT-15 it was above 100 µM; in the assay with OVCAR-4, > 100 µM (inactive). Moreover, the GI50 in the assay with PC-3, in the assay with UO-31, with KM12, with NCI/ADR-RES, with U-251 and in the assay with M14 was > 100 µM (inactive) throughout. Besides, the GI50 with UACC-257 and in the assay with RPMI-8226 was > 100 µM (inactive) in each case.

In the case of `O=C1c2ccccc2C(=O)N1c1nc(-c2ccc(Cl)cc2)cc(N2N=C(c3ccc(Br)cc3)CC2c2ccccc2)n1` (stereo not given), the GI50 in the assay on OVCAR-8 was 3.35 µM (inactive); in the assay with SF-539, 2.16 µM (inactive); in the assay on UACC-62 it was 2.72 µM (inactive); in the assay with SK-MEL-2 it was 3.26 µM (inactive); in the assay on OVCAR-3, 0.863 µM (active); in the assay with A549, 3.24 µM (inactive). The GI50 is 0.65 µM (active) with SR; 5.38 µM (inactive) in the assay with NCI-H226; 2.9 µM (inactive) in the assay on SN12C; 2.92 µM (inactive) with HOP-62; 1.99 µM in the assay with HCT-15; 4.23 µM (inactive) in the assay on OVCAR-4. Further, the GI50 in the assay with PC-3 was 3.93 µM (inactive); in the assay on UO-31, 4.81 µM (inactive); with KM12, 9.4 µM (inactive); with NCI/ADR-RES it was 1.97 µM (inactive); in the assay on U-251, 1.67 µM (inactive); in the assay with M14 it was 3.73 µM (inactive). The results for the GI50 in the assay on UACC-257 and in the assay with RPMI-8226 were 6.7 µM (inactive) and 2.7 µM (inactive), respectively.

As to `COC(=O)CC1C=CC(C)(OC)OO1` (stereo not given), the GI50 in the assay on OVCAR-8 is > 100 µM (inactive); with SF-539, > 100 µM (inactive); in the assay on UACC-62, 49.9 µM (inactive); with SK-MEL-2, > 100 µM (inactive); in the assay with OVCAR-3, 87.7 µM (inactive); in the assay with A549 it was 26 µM (inactive). Moreover, the GI50 was 58.5 µM (inactive) with SR; > 100 µM (inactive) in the assay on NCI-H226; > 100 µM (inactive) with SN12C; > 100 µM (inactive) in the assay on HOP-62; 39.4 µM with HCT-15; 97.9 µM (inactive) in the assay on OVCAR-4. The GI50 in the assay with PC-3, in the assay on UO-31, in the assay on KM12, with NCI/ADR-RES, with U-251 and in the assay with M14 was > 100 µM (inactive) throughout. Also, the figures for the GI50 in the assay with UACC-257 and in the assay on RPMI-8226 were > 100 µM (inactive) and 56.2 µM (inactive), respectively.

`N#CC1(C#N)NC(c2ccsc2)C(C#N)(C#N)NC1c1ccsc1` (stereo not given): the GI50 with OVCAR-8, with SF-539, with UACC-62, in the assay with SK-MEL-2, with OVCAR-3 and in the assay with A549 was > 100 µM (inactive) in each case. Also, the GI50 in the assay on SR is > 100 µM (inactive); with NCI-H226 it was > 100 µM (inactive); with SN12C it was > 100 µM (inactive); in the assay on HOP-62, > 100 µM (inactive); with HCT-15 it was above 100 µM; in the assay on OVCAR-4, > 100 µM (inactive). For the same compound, the GI50 in the assay with PC-3, in the assay on UO-31, in the assay with KM12, in the assay on NCI/ADR-RES, with U-251 and in the assay with M14 was > 100 µM (inactive) throughout. The GI50 in the assay with UACC-257 and in the assay with RPMI-8226 was > 100 µM (inactive) throughout.

With `CC1=CC[C@](C)(O)[C@@]2(C)CC[C@H]3C(=C(C)C)C(=O)C[C@]3(C)C[C@H]12`, the GI50 with OVCAR-8 is 29.2 µM (inactive); in the assay on SF-539 it was > 50 µM (inactive); in the assay with UACC-62, 11.9 µM (inactive); in the assay on SK-MEL-2 it was > 50 µM (inactive); in the assay with OVCAR-3 it was 36.3 µM (inactive); in the assay on A549 it was 46.8 µM (inactive). In addition, the GI50 in the assay with SR is 12.5 µM (inactive); in the assay with NCI-H226 it was > 50 µM (inactive); with SN12C, 34.8 µM (inactive); in the assay with HOP-62, 42.2 µM (inactive); with HCT-15, 12.3 µM; in the assay with OVCAR-4 it was > 50 µM (inactive). The GI50 in the assay with PC-3 is 21.4 µM (inactive); in the assay with UO-31, 28.8 µM (inactive); in the assay on KM12, 12.9 µM (inactive); in the assay on NCI/ADR-RES it was 16.5 µM (inactive); with U-251, > 50 µM (inactive); in the assay on M14, 24.8 µM (inactive). The GI50 in the assay with UACC-257 is > 50 µM (inactive); in the assay with RPMI-8226, 11.2 µM (inactive).

Take `FC1(F)ON2CCc3ccccc3C2[C@H]1c1ccccc1` (stereo not given in full): the GI50 in the assay with OVCAR-8 was 39.9 µM (inactive); in the assay on SF-539, 91.8 µM (inactive); in the assay with UACC-62 it was > 10 µM (inactive); in the assay with SK-MEL-2, > 10 µM (inactive); in the assay with OVCAR-3, 21 µM (inactive); in the assay on A549 it was > 10 µM (inactive). The GI50 was > 10 µM (inactive) in the assay on SR; 35.8 µM (inactive) with NCI-H226; > 10 µM (inactive) in the assay on SN12C; 90.4 µM (inactive) in the assay on HOP-62; above 10 µM with HCT-15; > 10 µM (inactive) with OVCAR-4. In addition, the GI50 in the assay with PC-3 was > 10 µM (inactive); in the assay with UO-31, > 100 µM (inactive); with KM12 it was > 10 µM (inactive); in the assay on NCI/ADR-RES, 92.9 µM (inactive); in the assay with U-251, 74 µM (inactive); with M14, 82 µM (inactive). Besides, the GI50 in the assay on UACC-257 and in the assay on RPMI-8226 was > 10 µM (inactive) each time.
